Broadly, the Ki is a dissociation constant, usually derived from enzyme kinetics or from competition with a known ligand. Usually IC50 stands for the concentration needed to halve the response being measured.

For assay [1], the target named is T1, recombinant human SOS1 polypeptide (amino acids 560-1049) (Homo sapiens, UniProt Q07889).
T1 construct: corresponding to amino acids 560-1049, expressed in E. Coli; made in house; host or cells: E. coli
T1 sequence (Q07889 560-1049): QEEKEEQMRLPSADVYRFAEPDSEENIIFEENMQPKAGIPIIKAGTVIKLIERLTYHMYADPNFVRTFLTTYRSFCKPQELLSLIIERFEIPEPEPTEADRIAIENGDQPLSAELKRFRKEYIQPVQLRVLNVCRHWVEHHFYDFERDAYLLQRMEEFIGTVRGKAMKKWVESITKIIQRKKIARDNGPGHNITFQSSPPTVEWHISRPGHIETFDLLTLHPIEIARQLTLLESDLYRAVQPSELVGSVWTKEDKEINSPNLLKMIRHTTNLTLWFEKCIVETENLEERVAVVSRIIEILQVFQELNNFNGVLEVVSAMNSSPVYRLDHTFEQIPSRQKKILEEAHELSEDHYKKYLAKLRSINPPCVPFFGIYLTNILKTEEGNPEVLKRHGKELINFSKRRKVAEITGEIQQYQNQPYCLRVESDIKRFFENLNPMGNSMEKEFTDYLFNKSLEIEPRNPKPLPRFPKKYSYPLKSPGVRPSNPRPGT
Kind of assay: HTRF displacement assay: inhibition of labeled tracer binding to SOS1.

For assay [2], the system named is pERK in MKN1 cells. In words: pERK inhibition, In-Cell Western (LI-COR Odyssey), MKN1 cells. The assay is classed as cell-based. Put shortly:
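MKN1 cells were exposed for about 0.5–1 h at 37 °C to nine 3-fold dilutions starting at 10 µM. Cells were then fixed in formaldehyde, permeabilised with methanol, and immunostained for pERK and GAPDH with near-infrared secondary antibodies. GAPDH-normalised pERK signal relative to vehicle gave % inhibition, from which IC50 was fitted.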

[3] abbreviates: Table A, Morrison equation for competitive binding.
Setting [4] is: Homo sapiens, MKN-1, Table B, MKN1 or H358 cells (table does not say which), 0.5-1 hour incubation, read-out: IC50 (nM), pERK inhibition.
Where [5] appears, read: Table A1, Morrison equation for competitive binding.
[6] abbreviates: Homo sapiens, MKN-1, Table B1, MKN1 or H358 cells (table does not say which), 0.5-1 hour incubation, read-out: IC50 (nM), pERK inhibition.

Molecules are shown by their SMILES. Structures can show the parent of a compound that is named as a salt. Where two headings read alike, the source gives them in different places.

Regarding `CCN1CCN(c2cc3c(N[C@H](C)c4cccc(C#N)c4C)nnc(C)c3cn2)CC1=O` [Example 1-44, (R)-3-(1-((7-(4-ethyl-3-oxopiperazin-1-yl)-4-methylpyrido[3,4-d]pyridazin-1-yl)amino)ethyl)-2-methylbenzonitrile], the inhibition constant Ki in assay [1] (setting [3]) came to 1.9 nM. Besides, in assay [2] (setting [4]), the IC50 was 44.6 nM.
With `Cc1nnc(N[C@H](C)c2cccc(C(F)(F)F)c2F)c2cc(N3CCC34CN(C)C4)ncc12` [Example 1-20, (R)-N-(1-(2-fluoro-3-(trifluoromethyl)phenyl)ethyl)-4-methyl-7-(6-methyl-1,6-diazaspiro[3.3]heptan-1-yl)pyrido[3,4-d]pyridazin-1-amine], the Ki in assay [1] (setting [3]) is 0.682 nM. Further, the IC50 in assay [2] (setting [4]) is 40.7 nM.
For the molecule `Cc1c(C#N)cccc1[C@@H](C)Nc1nnc(C)c2cnc(N3C[C@@H]4[C@H]3CCN4C)cc12` (single isomer, unassigned) [Example 6-8], the Ki in assay [1] (setting [3]) came to 0.808 nM. Moreover, the IC50 in assay [2] (Table B, MKN1 or H358 cells (table does not say which), 0.5-1 hour incubation, read-out: IC50 (nM), pERK inhibition) came to 33.8 nM.
Regarding `Cc1nnc(N[C@H](C)c2cccc(C(F)(F)F)c2F)c2cc(N(C)[C@H]3CCN(C(C)C)C3)ncc12` [Example 1-77, N^1-((R)-1-(2-fluoro-3-(trifluoromethyl)phenyl)ethyl)-N^7-((S)-1-isopropylpyrrolidin-3-yl)-N^7,4-dimethylpyrido[3,4-d]pyridazine-1,7-diamine], the Ki in assay [1] (setting [3]) came to 0.647 nM. In addition, the IC50 in assay [2] (setting [4]) is 121 nM.
Take `Cc1c(C#N)cccc1[C@@H](C)Nc1nnc(C)c2cc(F)c(N3CCC34CN(CCC(=O)O)C4)cc12` [Example P-220, (R)-3-(1-(4-((1-(3-cyano-2-methylphenyl)ethyl)amino)-7-fluoro-1-methylphthalazin-6-yl)-1,6-diazaspiro[3.3]heptan-6-yl)propanoic acid]: the Ki in assay [1] (setting [5]) is 0.678 nM. Also, in assay [2] (setting [6]), the IC50 came to 4110 nM.
Consider `Cc1c(C#N)cccc1[C@@H](C)Nc1nnc(C)c2cnc(N3CCS(=O)(=O)CC3)cc12` [Example 1-110, (R)-3-(1-((7-(1,1-dioxidothiomorpholino)-4-methylpyrido[3,4-d]pyridazin-1-yl)amino)ethyl)-2-methylbenzonitrile], for which the Ki in assay [1] (setting [3]) stood at 3.36 nM. The IC50 in assay [2] (setting [4]) came to 240 nM.
For the molecule `Cc1c(C#N)cccc1[C@@H](C)Nc1nnc(C)c2cnc(N3CCN(C4CC4)CC3)cc12` [Example 1-33, (R)-3-(1-((7-(4-cyclopropylpiperazin-1-yl)-4-methylpyrido[3,4-d]pyridazin-1-yl)amino)ethyl)-2-methylbenzonitrile], the Ki in assay [1] (setting [3]) was determined as 1.87 nM. Also, the IC50 in assay [2] (setting [4]) was 87.8 nM.
As for `Cc1c(C#N)cccc1[C@@H](C)Nc1nnc(C)c2cnc(N3C[C@H]4CCCN[C@H]4C3)cc12` (single isomer, unassigned) [Example 6-3], in assay [1] (setting [3]), the Ki is 0.992 nM. In assay [2] (setting [4]), the IC50 was 73 nM.
`Cc1c(C#N)cccc1[C@@H](C)Nc1nnc(C)c2cc(F)c(N3CCN(C)C(C)(C)C3)cc12` [Example 4-18, (R)-3-(1-((6-fluoro-4-methyl-7-(3,3,4-trimethylpiperazin-1-yl)phthalazin-1-yl)amino)ethyl)-2-methylbenzonitrile]: the Ki in assay [1] (setting [3]) is 1.42 nM. The IC50 in assay [2] (setting [4]) worked out at 118 nM.
Take `Cc1c(C#N)cccc1[C@@H](C)Nc1nnc(C)c2cnc(-c3ccc(=O)n(C)c3)cc12` [Example P-174, (R)-2-methyl-3-(1-((4-methyl-7-(1-methyl-6-oxo-1,6-dihydropyridin-3-yl)pyrido[3,4-d]pyridazin-1-yl)amino)ethyl)benzonitrile]: the Ki in assay [1] (setting [5]) came to 43.5 nM. In addition, the IC50 in assay [2] (setting [6]) was 1330 nM.
For `Cc1nnc(N[C@H](C)c2cccc(C(C)(F)F)c2F)c2cc(N(C)C)ncc12` [Example P-170, (R)-N1-(1-(3-(1,1-difluoroethyl)-2-fluorophenyl)ethyl)-N7,N7,4-trimethylpyrido[3,4-d]pyridazine-1,7-diamine] the same measures were 2.18 nM and 192 nM.
Turning to `Cc1c(C#N)cccc1[C@@H](C)Nc1nnc(N2CC[C@@H](N)C2)c2cnc(N3C[C@H]4C[C@@H]3CO4)cc12` [Example 5-1, 3-((R)-1-((4-((R)-3-aminopyrrolidin-1-yl)-7-((1R, 4R)-2-oxa-5-azabicyclo[2.2.1]heptan-5-yl)pyrido[3,4-d]pyridazin-1-yl)amino)ethyl)-2-methylbenzonitrile], in assay [1] (setting [3]), the Ki worked out at 0.505 nM. Also, the IC50 in assay [2] (setting [4]) was 1320 nM.
As for `Cc1nnc(N[C@H](C)c2cccc(C(F)(F)F)c2F)c2cc(N(C)[C@H]3CCOC3)ncc12` [Example 1-72, N^1-((R)-1-(2-fluoro-3-(trifluoromethyl)phenyl)ethyl)-N^7,4-dimethyl-N^7-((S)-tetrahydrofuran-3-yl)pyrido[3,4-d]pyridazine-1,7-diamine], the Ki in assay [1] (setting [3]) amounted to 1.74 nM. The IC50 in assay [2] (setting [4]) was 118 nM.
As for `Cc1nnc(N[C@H](C)c2cccc(C(F)F)c2F)c2cc(-c3ccc(=O)n(C)c3)ncc12` [Example P-239, (R)-5-(1-((1-(3-(difluoromethyl)-2-fluorophenyl)ethyl)amino)-4-methylpyrido[3,4-d]pyridazin-7-yl)-1-methylpyridin-2(1H)-one], in assay [1] (setting [5]), the inhibition constant Ki stood at 15.1 nM. The IC50 in assay [2] (setting [6]) amounted to 606 nM.
For `Cc1c(C#N)cccc1[C@@H](C)Nc1nnc(C)c2cnc(N3CCn4c(C)nnc4C3)cc12` [Example P-27, (R)-2-methyl-3-(1-((4-methyl-7-(3-methyl-5,6-dihydro-[1,2,4]triazolo[4,3-a]pyrazin-7(8H)-yl)pyrido[3,4-d]pyridazin-1-yl)amino)ethyl)benzonitrile], the Ki in assay [1] (setting [5]) turned out to be 1.26 nM. For the same molecule, the IC50 in assay [2] (setting [6]) was > 10000 nM.
As for `Cc1c(C#N)cccc1[C@@H](C)Nc1nnc(C)c2cc(F)c(-c3ccc(=O)n(C)c3)cc12` [Example P-172, (R)-3-(1-((6-fluoro-4-methyl-7-(1-methyl-6-oxo-1,6-dihydropyridin-3-yl)phthalazin-1-yl)amino)ethyl)-2-methylbenzonitrile], the Ki in assay [1] (setting [5]) is 12.5 nM. The IC50 in assay [2] (setting [6]) stood at 457 nM.
With `CO[C@@H]1CCN(c2cc3c(N[C@H](C)c4cccc(C#N)c4C)nnc(C)c3cn2)C1` [Example 1-49, 3-((R)-1-((7-((R)-3-methoxypyrrolidin-1-yl)-4-methylpyrido[3,4-d]pyridazin-1-yl)amino)ethyl)-2-methylbenzonitrile], the Ki in assay [1] (setting [3]) amounted to 2.01 nM. Moreover, in assay [2] (setting [4]), the IC50 worked out at 36 nM.
Take `Cc1c(C#N)cccc1[C@@H](C)Nc1nnc(C)c2cnc(N3C[C@H]4CCCN(C)[C@H]4C3)cc12` (single isomer, unassigned) [Example 6-5]: the Ki in assay [1] (setting [3]) is 1.12 nM. Also, in assay [2] (setting [4]), the IC50 amounted to 85.2 nM.
With `Cc1c(C#N)cccc1[C@@H](C)Nc1nnc(C)c2cnc(N3CCOCC34CN(C)C4)cc12` [Example P-211, (R)-2-methyl-3-(1-((4-methyl-7-(2-methyl-8-oxa-2,5-diazaspiro[3.5]nonan-5-yl)pyrido[3,4-d]pyridazin-1-yl)amino)ethyl)benzonitrile], the Ki in assay [1] (setting [5]) was 13.4 nM. In assay [2] (setting [6]), the IC50 turned out to be 503 nM.
For the molecule `Cc1nnc(N[C@H](C)c2cccc3c2OCC3(F)F)c2cc(N3C[C@@H]4C[C@H]3CN4C)ncc12` [Example P-184, N-((R)-1-(3,3-difluoro-2,3-dihydrobenzofuran-7-yl)ethyl)-4-methyl-7-((1S,4S)-5-methyl-2,5-diazabicyclo[2.2.1]heptan-2-yl)pyrido[3,4-d]pyridazin-1-amine formic acid salt], the Ki in assay [1] (setting [5]) was determined as 1.02 nM. Moreover, in assay [2] (Homo sapiens, MKN-1, read-out: IC50 (nM), pERK inhibition), the IC50 worked out at 65.7 nM.
Consider `Cc1nnc(N[C@H](C)c2cccc(C(F)(F)F)c2F)c2cc(N3CCC4(CN(C)C4)C3)ncc12` [Example 1-26, (R)-N-(1-(2-fluoro-3-(trifluoromethyl)phenyl)ethyl)-4-methyl-7-(2-methyl-2,6-diazaspiro[3.4]octan-6-yl)pyrido[3,4-d]pyridazin-1-amine], for which the Ki in assay [1] (setting [3]) is 0.348 nM. The IC50 in assay [2] (setting [4]) stood at 30.8 nM.
As for `CCN1CCC(N(C)c2cc3c(N[C@H](C)c4cccc(C#N)c4C)nnc(C)c3cn2)CC1` [Example 1-43, (R)-3-(1-((7-((1-ethylpiperidin-4-yl)(methyl)amino)-4-methylpyrido[3,4-d]pyridazin-1-yl)amino)ethyl)-2-methylbenzonitrile], the Ki in assay [1] (setting [3]) came to 1.28 nM. Further, the IC50 in assay [2] (setting [4]) was found to be 42.2 nM.
With `CC(=O)N1CC2(CCN2c2cc3c(N[C@H](C)c4cccc(C#N)c4C)nnc(C)c3cn2)C1` [Example P-215, (R)-3-(1-((7-(6-acetyl-1,6-diazaspiro[3.3]heptan-1-yl)-4-methylpyrido[3,4-d]pyridazin-1-yl)amino)ethyl)-2-methylbenzonitrile], in assay [1] (setting [5]), the Ki came out at 2.23 nM. Besides, the IC50 in assay [2] (setting [6]) is 38.7 nM.

Values taken from patent publication US20250059182A1, “SOS1 INHIBITORS” (Mirati Therapeutics, Inc., priority 2021, published 2025).
